This is an account of results in patent US20090069336A1, “PYRIMIDOTHIOPHENE COMPOUNDS” (VERNALIS (CAMBRIDGE) LIMITED., priority 2004, published 2009).

The structures appear in SMILES notation.

T1 sequence (P08238 whole entry): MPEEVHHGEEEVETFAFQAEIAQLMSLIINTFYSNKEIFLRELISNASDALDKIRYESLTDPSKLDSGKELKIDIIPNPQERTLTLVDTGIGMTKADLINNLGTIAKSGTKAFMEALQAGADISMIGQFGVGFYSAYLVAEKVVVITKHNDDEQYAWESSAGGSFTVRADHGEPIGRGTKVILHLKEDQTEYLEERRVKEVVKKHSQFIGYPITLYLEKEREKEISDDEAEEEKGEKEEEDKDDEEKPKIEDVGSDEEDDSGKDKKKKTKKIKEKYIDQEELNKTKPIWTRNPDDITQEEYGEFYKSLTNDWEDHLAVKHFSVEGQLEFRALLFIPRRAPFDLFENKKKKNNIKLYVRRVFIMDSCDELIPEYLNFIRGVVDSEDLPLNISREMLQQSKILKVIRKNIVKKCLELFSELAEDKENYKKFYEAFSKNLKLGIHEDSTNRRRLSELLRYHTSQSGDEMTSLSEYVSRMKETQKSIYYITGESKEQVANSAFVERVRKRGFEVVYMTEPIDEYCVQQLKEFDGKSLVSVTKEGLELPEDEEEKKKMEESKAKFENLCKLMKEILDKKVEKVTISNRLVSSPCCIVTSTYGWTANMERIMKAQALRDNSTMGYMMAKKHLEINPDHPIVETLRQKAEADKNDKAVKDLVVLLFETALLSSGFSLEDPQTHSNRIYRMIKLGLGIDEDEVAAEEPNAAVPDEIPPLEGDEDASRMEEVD

One assay concerns the target T1, human full-length HSP90 (Homo sapiens, UniProt P08238).
T1 construct: E. coli expressed human full-length HSP90 protein, purified >95%; made in house; host or cells: E. coli
Nature of the assay: Fluorescence polarization assay (competitive displacement of probe RBT0051001-FAM from HSP90). Format: binding. The following applies: activity range stated in each example; read-out: activity in the fluorescence polarization assay. An excerpt: Fluorescence Polarization Assay
Fluorescence polarization {also known as fluorescence anisotropy} measures the rotation of a fluorescing species in solution, where the larger molecule the more polarized the fluorescence emission. When the fluorophore is excited with polarized light, the emitted light is also polarized. The molecular size is proportional to the polarization of the fluorescence emission.
The fluoroscein-labelled probe —RBT0051001-FAM—
binds to HSP90 {full-length human, full-length yeast or N-terminal domain HSP90} and the anisotropy {rotation of the probe:protein complex} is measured.
Test compound is added to the assay plate, left to equilibrate and the anisotropy measured again. Any change in anisotropy is due to competitive binding of compound to HSP90, thereby releasing probe.
Chemicals are of the highest purity commercially available and all aqueous solutions are made up in AR water. • 1) Costar 96-well black assay plate #3915 • 2) Assay buffer of (a) 100 mM Tris pH7.4; (b) 20 mM KCl; (c) 6 mM MgCl2. Stored at room temperature. • 3) BSA (bovine serum albumen) 10 mg/ml (New England Biolabs # B9001S) • 4) 20 mM probe in 100% DMSO stock concentration. Stored in the dark at RT. Working concentration is 200 nM diluted in AR water and stored at 4° C. Final concentration in assay 80 nM. • 5) E. coli expressed human full-length HSP90 protein, purified >95% (see, e.g., Panaretou et al., 1998) and stored in 50 μL aliquots at −80° C.
• 1) Add 100 μl 1× buffer to wells 11A and 12A (=FP BLNK) • 2) Prepare assay mix—all reagents are kept on ice with a lid on the bucket as the probe is light-sensitive.
• 3) Aliquot 100 μl assay mix to all other wells • 4) Seal plate and leave in dark at room temp for 20 minutes to equilibrate Compound Dilution Plate—1×3 dilution series • 1) In a clear 96-well v-bottom plate-{# VWR 007/008/257} add 10 μl 100% DMSO to wells B1 to H11 • 2) To wells A1 to A11 add 17.5 μl 100% DMSO • 3) Add 2.5 μl cpd to A1. This gives 2.5 mM {50×} stock cpd-assuming cpds 20 mM. • 4) Repeat for wells A2 to A10. Control in columns 11 and 12. • 5) Transfer 5 μl from row A to row B—not column 12. Mix well. • 6) Transfer 5 μl from row B to row C. […] In column 11 {provides standard curve} only add compound B11-H11. Add 2 μl of 100 mM standard cpd to wells B12-H12 {is positive control} • 13) The Z′ factor is calculated from zero controls and positive wells. It typically gives a value of 0.7-0.9.
The compounds tested in the above assay were assigned to one of two activity ranges, namely A=<10 μM; B=>10 μM, and those assignments are reported above.
Background: Fluorescence polarisation rises when a labelled molecule tumbles more slowly, as on binding a larger partner.
For the molecule `Cc1ccc(-c2nc(N)nc3sc(-c4ncon4)cc23)c(C)c1` [Example 10, 4-(2,4-dimethyl-phenyl)-6-[1,2,4]oxadiazol-3-yl-thieno[2,3-d]pyrimidin-2-ylamine], the IC50 was below 10 µM.

Take `CC(=O)NCc1cc2c(-c3ccc(Cl)cc3Cl)nc(N)nc2s1` [Example 26, N-[2-Amino-4-(2,4-dichloro-phenyl)-thieno[2,3-d]pyrimidin-6-ylmethyl]-acetamide]: the IC50 was below 10 µM. For the molecule `Cc1cn[nH]c1-c1cc2c(-c3ccc(Cl)cc3Cl)nc(N)nc2s1` [Example 20, 4-(2,4-Dichloro-phenyl)-6-(4-methyl-2H-pyrazol-3-yl)-thieno[2,3-d]pyrimidin-2-ylamine], the IC50 was below 10 µM. On the same count and under the same terms, to `Cc1cc(-c2cc3c(-c4ccc(Cl)cc4Cl)nc(N)nc3s2)[nH]n1` [Example 19, 4-(2,4-Dichloro-phenyl)-6-(5-methyl-2H-pyrazol-3-yl)-thieno[2,3-d]pyrimidin-2-ylamine] belongs below 10 µM. Same read-out and setting: to `CC(C)(O)c1cc2c(-c3ccc(Cl)cc3Cl)nc(N)nc2s1` [Example 3, 2-[2-Amino-4-(2,4-dichloro-phenyl)-thieno[2,3-d]pyrimidin-6-yl]-propan-2-ol] belongs above 10 µM. Still for that read-out and setting: to `CCN(CC)CCOc1cc(-c2nc(N)nc3sc(C4=NCCN4)cc23)c(Cl)cc1Cl` [Example 31, 4-[2,4-dichloro-5-(2-diethylamino-ethoxy)-phenyl]-6-(4,5-dihydro-1H-imidazol-2-yl)-thieno[2,3-d]pyrimidin-2-ylamine] belongs below 10 µM. As to `NCc1cc2c(-c3ccc(Cl)cc3Cl)nc(N)nc2s1` [Example 25, 6-Aminomethyl-4-(2,4-dichloro-phenyl)-thieno[2,3-d]pyrimidin-2-ylamine], the IC50 was below 10 µM.

System in another assay: not listed separately
Nature of the assay: Sulforhodamine B (SRB) growth inhibition / growth arrest assay. Format: cell-based. The following applies: cell line not stated. How it is done:
A growth inhibition assay was also employed for the evaluation of candidate HSP90 inhibitors:
Assessment of cytotoxicity by Sulforhodamine B (SRB) assay: calculation of 50% inhibitory concentration (IC50).
• 1) Determine cell number by haemocytometer. • 2) Using an 8 channel multipipettor, add 160 μl of the cell suspension (3600 cells/well or 2×10^4 cells/ml) to each well of a 96-well microtitre plate. • 3) Incubate overnight at 37° C. in a CO2 incubator. […]
• 8) Tip off medium into sink and immerse plate slowly into 10% ice cold trichloroacetic acid (TCA). […] Leave for 15 mins. • 12) Wash off unbound SRB stain with four washes of 1% acetic acid. • 13) Dry plates in incubator. • 14) Solubilise SRB using 100 μl of 10 mM Tris base and put plates on plate shaker for 5 mins. • 15) Determine absorbance at 540 nm using a plate reader. Calculate mean absorbance for quadruplicate wells and express as a percentage of value for control, untreated wells. • 16) Plot % absorbance values versus log drug concentration and determine the IC50.
For the molecule `Cc1ccc(-c2nc(N)nc3sc(-c4ncon4)cc23)c(C)c1` [Example 10, 4-(2,4-dimethyl-phenyl)-6-[1,2,4]oxadiazol-3-yl-thieno[2,3-d]pyrimidin-2-ylamine], the IC50 is below 50 µM.
